Common to all, as to type: functional
Assay [1] has as its system Cavia porcellus. The assay is described as follows: Platelet-activating factor-antagonist activity was assessed in guinea pig bronchoconstriction assay through peroral administration at a dose of 50 mg/kg at 2 hr. To be noted: Lung, route oral.
The test system of assay [2] is Cavia porcellus. The assay is described as follows: Platelet-activating factor-antagonist activity was assessed in guinea pig bronchoconstriction assay through peroral administration at a dose of 50 mg/kg at 6 hr. To be noted: Lung, route oral.
For assay [3], the system named is Cavia porcellus. The assay is described as follows: 50% inhibitory dose in a guinea pig bronchoconstriction assay through peroral administration. Particulars: Lung, po, read-out: ID50 (the source's name).
The test system of assay [4] is Cavia porcellus. The experiment in a line: 50% inhibitory dose in a guinea pig bronchoconstriction assay of intravenous administration. Particulars: Lung, read-out: ID50 (the source's name).
Assay [5] concerns Cavia porcellus. The experiment in a line: 50%inhibitory dose in a guinea pig bronchoconstriction assay through peroral administration. To be noted: Lung, po, read-out: ID50 (the source's name).
The test system of assay [6] is Cavia porcellus. The assay is described as follows: 50% inhibitory dose in a guinea pig bronchoconstriction assay upon intravenous administration. To be noted: Lung, read-out: ID50 (the source's name).

For the compound `C=CCc1cc(C(=O)N[C@H](C)CCCc2cccnc2)ccc1-c1ccc(OC)c(OC)c1`, the inhibition in vivo (as a rule, the change of the read-out against control, counted positive when it falls) at 50 mg/kg worked out at 93% in assay [1] and 26% in assay [2]. For the same compound, the ED50 in assay [3] was found to be 24 mg/kg; in assay [4] it was 0.33 mg/kg.
For the compound `COc1cccc(-c2ccc(C(=O)NCCCCc3cccnc3)cc2)c1`, testing at 50 mg/kg in assay [1] gave an inhibition in vivo of 55%. Moreover, the values for the ED50 in assay [5] and in assay [6] were 50 mg/kg and 0.51 mg/kg, respectively.
In the case of `COc1cccc(-c2ccc(C(=O)N[C@H](C)CCCc3cccnc3)cc2)c1`, in assay [1], the inhibition in vivo at 50 mg/kg is 44%. In addition, the ED50 in assay [4] is 0.45 mg/kg.
`CCCCc1cc(C(=O)N[C@H](C)CCCc2cccnc2)ccc1-c1ccc(OC)c(OC)c1`: the inhibition in vivo at 50 mg/kg in assay [1] was 91%; in assay [2] it was 55%. The ED50 in assay [3] worked out at 25 mg/kg; in assay [4], 0.8 mg/kg.
Take `COc1ccc(-c2ccc(C(=O)NCCCCc3cccnc3)cc2OC)cc1OC`: the figures for the inhibition in vivo at 50 mg/kg in assay [1] and in assay [2] were 64% and 13%, respectively. Further, the ED50 in assay [4] was 0.52 mg/kg.
In the case of `COc1ccc(-c2ccc(C(=O)NCCCCc3cccnc3)cc2Br)cc1OC`, the results for the inhibition in vivo at 50 mg/kg in assay [1] and in assay [2] were 74% and 1%, respectively. In addition, the results for the ED50 in assay [3] and in assay [4] were 19 mg/kg and 0.4 mg/kg, respectively.
For `CCc1cc(C(=O)N[C@H](C)CCCc2cccnc2)ccc1-c1ccc(OC)c(OC)c1` the same measures were 89%, 23%, 24 mg/kg and 0.34 mg/kg.
For `COc1ccc(-c2ccc(C(=O)N[C@H](C)CCCc3cccnc3)cc2[N+](=O)[O-])cc1OC` the same measures were 89%, 36%, 22 mg/kg and 0.19 mg/kg.
For `COc1ccc(-c2ccc(C(=O)NCCCCc3cccnc3)cc2[N+](=O)[O-])cc1OC` the same measures were 62%, 4%, 39 mg/kg and 0.76 mg/kg.
Compound `O=C(NCCCCc1cccnc1)c1ccc(-c2ccccc2)c(-c2ccccc2)c1` yielded an inhibition in vivo at 50 mg/kg in assay [1] of 33%. Moreover, the ED50 in assay [4] was determined as 3.2 mg/kg.
In the case of `COc1ccc(-c2ccc(C(=O)N[C@H](C)CCCc3cccnc3)cc2)cc1OC`, the inhibition in vivo at 50 mg/kg was 88% in assay [1] and 29% in assay [2]. The ED50 in assay [3] was 30 mg/kg; in assay [4] it was 0.62 mg/kg.
For `COc1ccc(-c2ccc(C(=O)N[C@H](C)CCCc3cccnc3)cc2Br)cc1OC` the same measures were 97%, 59%, 14 mg/kg and 0.4 mg/kg.
Regarding `COc1ccc(-c2ccc(C(S)=N[C@H](C)CCCc3cccnc3)cc2)cc1OC`, in assay [1], the inhibition in vivo at 50 mg/kg was found to be 37%. Also, the ED50 in assay [4] amounted to 0.31 mg/kg.

(Values after ChEMBL document CHEMBL1124556, “Biphenylcarboxamide derivatives as antagonists of platelet-activating factor” (J Med Chem, 1989).)
